According to patent publication US12201626B2, “Bifunctional compositions for the treatment of cancer” (ARMACEUTICA, INC., priority 2018, dated 2025):
Read-outs that look alike come from different tables or passages of the source.

Assays:
[1] = tested on: panel of human cancer cell lines; assay: Differential Nuclear Staining (DNS) cytotoxicity assay, panel; type: cell-based; conditions: Homo sapiens; 72 h, DNS assay; read-out: CC50 over all cancer cell lines tested
From the text: (§1) In this study, 19 human cell lines were utilized: seven breast human cancer; MDA-MB-468, MCF-7, T47D, HCC1419, HCC70, MDA-MB-231 (triple negative) and its lung metastatic (LM) derivative MDA-MB-231 LM2; four human leukemia/lymphoma cells, HL-60, Ramos, Jurkat and CEM, three human ovarian cancer, Ovcar 8, Ovcar 5 and Ovcar 3, one lung cancer, one melanoma and one pancreatic cell line, A549, A375, Panc-1 respectively. Furthermore, for selectivity/comparative purposes, the cell lines from the non-cancerous origin, MCF-10A, HS-27 were also included. The culture media used for MDA-MB-231, MDA-MB-231 LM2, MDA-MB-468, MCF-7, A549, A375, Panc-1, and HS-27 was DMEM (Hyclone, Logan UT), whereas for T47D, HCC-1419, HCC-70, HL-60, Ramos, Jurkat, CEM, Ovcar 8 and Ovcar 5 was RPMI-1640 (Hyclone, Logan UT). Consistently, both DMEM and RPMI culture media was supplemented with 10% heat-inactivated fetal bovine serum (FBS: Hyclone), 100 U/ml penicillin and 100 μg/ml streptomycin (Thermo Fisher Scientific Inc., Rockford, IL). […] The adherent cells, growing in the logarithmic growth phase at a 60-75% confluence, were detached by utilizing a HyQtase enzyme (Thermo Fisher Scientific Inc.), counted and seeded in 96-well plates at 10,000 cells density in 100 μL of culture medium per well. […]
(§2) To analyze the potential cytotoxic activity of PND, the Differential Nuclear Staining (DNS) assay, which was validated for high-throughput screening (HTS) using live-cell bio-imaging was utilized. […] Montages of 2 by 2 images were captured directly from each individual well of the culture plates by using a multi-well plate reader IN Cell 2000 analyzer, an HTS and high-content analysis (HCA) system (GE Healthcare Life Sciences, Pittsburgh, PA). […] Each experimental data point, as well as controls, were assessed in triplicates. […]
(§3) The selective cytotoxicity index (SCI) denotes the capability of a given experimental compound to kill cancer cells more efficiently while inflicting minimal toxicity to non-cancerous origin cells. Thus, the SCI for PND was calculated as follow: SCI=CC50 of non-cancerous cells/CC50 of cancer cells.

[2] = as above; type: cell-based; conditions: human, read-out: selective cytotoxicity index (SCI)
From the text: as §1, §2, §3

[3] = tested on: plasmid dsDNA (pCMV-dR8.91); assay: DNA mobility-shift assay (agarose gel); type: binding; design: DNA mobility shift: unit of the concentration uncertain; conditions: for DNA mobility shift: 100 ng plasmid DNA
Experimental: Typically, an experimental compound intercalating or binding to double stranded (ds) DNA will increase the molecular mass resulting from forming complexes, decreasing its electrophoretic mobility in an agarose gel, as compared with untreated dsDNA. To explore the potential interaction between PND and dsDNA, a DNA mobility-shift assay was conducted. Each reaction mixture was of 10 μl total volume in PBS pH 7.4. Both PND (Sigma-Aldrich) and quinacrine (Sigma-Aldrich) were tested with three individual concentrations of 1 μM, 0.5 μM or 0.25 μM, respectively. To each reaction mixture, 100 ng of plasmid dsDNA (pCMV-dR8.91; Addgene, Cambridge, MA) was added and the mixture was then incubated for 30 min at 37° C. and stopped by adding 2 μl of 6× gel loading buffer and placed on ice. The potential binding interaction between both PND and quinacrine with dsDNA were analyzed by using 1% (w/v) agarose-gel electrophoresis dissolved in TAE buffer (0.04 M Tris base, 0.04 M acetate and 0.001 M EDTA) pH 8.0. To stain the dsDNA complexes, Ethidium bromide was added to the agarose gel throughout the electrophoresis process at a concentration of 0.5 μg/ml. DNA migration was visualized by utilizing a gel documentation system and pictures were captured by using a UV-light transilluminator (Alpha Innotech, San Leandro, CA). The well-known DNA intercalator fluorescent compound, propidium iodide (PI), was included as positive controls at 1 μg per reaction. As a control, untreated plasmid DNA was included to determine its normal electrophoretic mobility in the gel.

[4] = tested on: malignancy that was metastatic or unresectable; assay: Open-label dose-escalating study of oral PND in terminally-ill human cancer patients
Experimental: An open-label, dose-escalating study was conducted to assess the longevity and safety of oral pyronaridine tetraphosphate (PND) in five terminally-ill human patients with selected cancers. […] Exclusion criteria included active clinically significant infection, uncontrolled intercurrent illness, neutropenia, and pregnancy.
The PND was obtained from Mangalam Drugs and Organics, Ltd, and the powered PND was encapsulated in size “00” gelatin capsules for oral administration.
Patient were instructed to escalate his or her dose if there was no unacceptable toxicity. […] Study Arm 2 started with a daily dose of 200 mg for 2 weeks, then 400 mg for 2 weeks, then 600 mg onwards. Due to ethical concerns of treating terminally-ill patients, there was no placebo group.
The primary outcomes assessed was the difference between the patient's expected survival length estimated at the time of study entry (estimated at 2-4 weeks for each patient) and his or her actual survival length. The secondary outcomes were malignancy-associated symptom relief, anti-tumor activity, safety, and tolerability of PND.

COC1=CC=C2Nc3cc(Cl)ccc3C(N=C3C=C(CN4CCCC4)C(=O)C(CN4CCCC4)=C3)=C2N1 [PND, 4-[(7-chloro-2-methoxy-1,5-dihydrobenzo[b][1,5]naphthyridin-10-yl)imino]-2,6-bis(pyrrolidin-1-ylmethyl)cyclohexa-2,5-dien-1-one]
CC50 [1]: 1.6 to 9.4 µM
selectivity ratio at 72 h ([2]; leukemia/lymphoma cells): 1.43 to 3.47
selectivity ratio at 72 h ([2]; several breast cancer cells vs non-cancerous cells): > 2.5
DNA mobility shift ([3]; 0.5 and 0.25 mM): clear reduction in mobility
DNA mobility shift ([3]; 1 (unit uncertain), 30 min 37° C.): marked reduction of migration
DNA degradation ([3]; fragments smaller than free supercoiled DNA): did not result in DNA degradation
most recent CBC and CMP results ([4]; Case 1): within normal reference ranges
study-drug related adverse events ([4]; Case 1, hilar cholangiocarcinoma): no reports of any study-drug related adverse events
survival status ([4]; Case 1, June 2019, start 20 Dec. 2018, expected survival 2-4 weeks): still alive
study-drug related adverse events ([4]; Case 2, lung cancer stage IV): no reports of study-drug related adverse events
survival status ([4]; Case 2, start 22 Jan. 2019): passed away on 22 Feb. 2019
study-drug related adverse events ([4]; Case 3, ovarian cancer stage IV): no reports of study-drug related adverse events
survival status ([4]; Case 3, start 15 Jan. 2019): passed away on 29 Jan. 2019
survival status ([4]; Case 4, breast cancer stage IV, start 20 Jan. 2019): passed away on 15 Feb. 2019
most recent CBC and CMP results ([4]; Case 5): within normal reference ranges
study-drug related adverse events ([4]; Case 5, small cell lung cancer stage IV, cleared within a week): irritation on the skin during the first week of treatment
survival status ([4]; Case 5, June 2019, start 29 Jan. 2019): still alive
maximum tolerated dose ([4]; any patient, up to 500 or 600 mg daily): not reached
tolerability ([4]; five patients, 200-600 mg daily oral): well tolerated
